Some test systems named below: A498 renal; A549 NSCLC; CAKI-1 renal; COLO 205 colon; EKVX NSCLC; HCC-2998 colon; HL-60(TB) leukemia; K-562 leukemia; NCI/ADR-RES ovarian; OVCAR-4 ovarian; OVCAR-8 ovarian; PC-3 prostate; SF-268 CNS; SF-295 CNS; SK-MEL-5 melanoma; SK-OV-3 ovarian; UACC-257 melanoma; NCI-H460 lung; SF-539 CNS; SNB-75 CNS.
Assay in all cases: NCI anticancer screen, dose series, 48 h

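Interpolation was linear, between the two tested concentrations surrounding the appropriate level; five concentrations were tested over 48 hours in 96-well plates. Definition used: TGI = concentration required for complete inhibition of growth.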 Where a SMILES comes first, the peptide text is derived from it. Where only a bound is given, the exact number is not on record here.

With `CCC1c2[nH]c3ccccc3c2C[C@H]2C(=O)N3CCC[C@H]3C(=O)N12` (stereo not given in full), the TGI in the test on A498 renal, with A549 NSCLC, with CAKI-1 renal, in the test on COLO 205 colon, in the test with EKVX NSCLC and with HCC-2998 colon was more than 100 µM each time. For the same molecule, the TGI in the test on HL-60(TB) leukemia, in the test on K-562 leukemia, in the test with NCI/ADR-RES ovarian, with OVCAR-4 ovarian, in the test on OVCAR-8 ovarian and in the test on PC-3 prostate was more than 100 µM throughout. The TGI with SF-268 CNS, in the test with SF-295 CNS, in the test with SK-MEL-5 melanoma, in the test on SK-OV-3 ovarian and in the test with UACC-257 melanoma was more than 100 µM in each case.
Consider `N#C/C(C(=S)Nc1ccccc1)=C(/N)N1CCCC1`, for which the TGI in the test on A498 renal is more than 100 µM; in the test with A549 NSCLC, more than 100 µM; with CAKI-1 renal, 92.5 µM; in the test with COLO 205 colon, more than 100 µM; in the test on EKVX NSCLC it was more than 100 µM; with HCC-2998 colon, more than 100 µM. The TGI in the test with HL-60(TB) leukemia, in the test on K-562 leukemia, in the test with NCI-H460 lung, with NCI/ADR-RES ovarian, in the test with OVCAR-4 ovarian and in the test with OVCAR-8 ovarian was more than 100 µM in each case. The TGI in the test on PC-3 prostate, in the test with SF-268 CNS, in the test with SF-295 CNS, with SF-539 CNS, in the test on SK-MEL-5 melanoma and in the test with UACC-257 melanoma was more than 100 µM each time.
Consider `CC(CO)(CBr)COC(=O)c1cc(Br)c(N)c(Br)c1` (stereo not given), for which the TGI in the test on A498 renal, in the test on A549 NSCLC, in the test with CAKI-1 renal, with COLO 205 colon, in the test on EKVX NSCLC and in the test on HCC-2998 colon was more than 100 µM throughout. The TGI in the test with HL-60(TB) leukemia, in the test with K-562 leukemia, with NCI/ADR-RES ovarian, with OVCAR-4 ovarian, in the test with OVCAR-8 ovarian and in the test on PC-3 prostate was more than 100 µM throughout. In addition, the TGI in the test with SF-268 CNS, with SF-295 CNS, with SF-539 CNS, in the test on SK-MEL-5 melanoma, in the test on SK-OV-3 ovarian and with UACC-257 melanoma was more than 100 µM in each case.
As to `O=[N+]([O-])C(=C(N1CCCCC1)N1CCCCC1)/C(Cl)=C(\Cl)[N+](=O)[O-]`, the TGI was found to be 32.1 µM in the test on A498 renal; 42.4 µM in the test with A549 NSCLC; 2.83 µM with CAKI-1 renal; 11.5 µM in the test with COLO 205 colon; 30 µM in the test on EKVX NSCLC; 55.6 µM with HCC-2998 colon. For the same molecule, the TGI is more than 100 µM in the test with K-562 leukemia; 59.9 µM in the test with NCI-H460 lung; 50.7 µM in the test with NCI/ADR-RES ovarian; 22.8 µM with OVCAR-4 ovarian; 23.2 µM in the test with OVCAR-8 ovarian; 30 µM in the test with PC-3 prostate. Moreover, the TGI was 25.4 µM with SF-268 CNS; 46 µM with SF-295 CNS; 25.8 µM in the test with SF-539 CNS; 11 µM with SK-MEL-5 melanoma; more than 59.8 µM with SK-OV-3 ovarian; 32.9 µM in the test on SNB-75 CNS. Also, the TGI in the test with UACC-257 melanoma is 15.5 µM.
Consider `CC1OC(OC2C(CO)OC(O[C@H]3CC[C@@]4(C)C(=CC[C@H]5[C@@H]6C[C@@H]7O[C@](O)(CC[C@H](CO)COC8OC(CO)C(O)C(O)C8O)[C@@H](C)[C@@H]7[C@@]6(C)CC[C@@H]54)C3)C(OC3OC(C)C(O)C(O)C3O)C2O)C(O)C(O)C1O` (stereo not given in full), for which the TGI in the test with A498 renal, in the test with A549 NSCLC, in the test with CAKI-1 renal, with COLO 205 colon, with EKVX NSCLC and in the test with HCC-2998 colon was more than 100 µM throughout. Besides, the TGI with K-562 leukemia, in the test with NCI-H460 lung, with NCI/ADR-RES ovarian, in the test on OVCAR-4 ovarian, in the test on OVCAR-8 ovarian and in the test on PC-3 prostate was more than 100 µM each time. In addition, the TGI in the test with SF-268 CNS, in the test on SF-295 CNS, in the test with SF-539 CNS, in the test on SK-MEL-5 melanoma, with SK-OV-3 ovarian and in the test with SNB-75 CNS was more than 100 µM each time. In addition, in the test on UACC-257 melanoma, the TGI was more than 100 µM.
Turning to `C[C@]12CC[C@H]3[C@@H](CCC4=CC(=O)CC[C@@]43C)[C@@H]1CC[C@@H]2C(=O)Nc1ccc([N+](=O)[O-])c(C(F)(F)F)c1`, the TGI was 33.6 µM with A498 renal; 37.1 µM in the test with A549 NSCLC; 35.9 µM in the test with CAKI-1 renal; 36.7 µM in the test on COLO 205 colon; 27.8 µM in the test on EKVX NSCLC; 26.4 µM in the test with HCC-2998 colon. For the same molecule, the TGI in the test with HL-60(TB) leukemia was more than 100 µM; with K-562 leukemia, 73.7 µM; in the test with NCI-H460 lung, 33.4 µM; in the test with NCI/ADR-RES ovarian it was 38.5 µM; in the test with OVCAR-4 ovarian it was 34.9 µM; in the test on OVCAR-8 ovarian, 90.9 µM. Further, the TGI in the test on PC-3 prostate was found to be 40 µM; in the test on SF-268 CNS it was 36.5 µM; in the test on SF-295 CNS, 31.7 µM; with SF-539 CNS it was 33.5 µM; in the test on SK-MEL-5 melanoma, 32.5 µM; in the test on SK-OV-3 ovarian, 25.4 µM. For the same molecule, the TGI in the test on UACC-257 melanoma was more than 10 µM.
For the molecule `CC(C)[Si](OC1=C(c2ccccc2)C(NC(=O)/C=C/c2ccc([N+](=O)[O-])cc2)CCC1)(C(C)C)C(C)C` (stereo not given), the TGI in the test on A498 renal, in the test on A549 NSCLC, with COLO 205 colon, in the test on EKVX NSCLC, in the test on HCC-2998 colon and with HL-60(TB) leukemia was more than 100 µM in each case. In addition, the TGI in the test on K-562 leukemia, in the test on NCI-H460 lung, with NCI/ADR-RES ovarian, in the test with OVCAR-8 ovarian, in the test on PC-3 prostate and in the test on SF-268 CNS was more than 100 µM in each case. Further, the TGI in the test on SF-295 CNS, in the test with SF-539 CNS, in the test on SK-MEL-5 melanoma, with SK-OV-3 ovarian, in the test with SNB-75 CNS and in the test on UACC-257 melanoma was more than 100 µM each time.
Take `CC(C)(C)OC(=O)CC(NC(=O)OC(C)(C)C)C(=O)NC(C(=O)O)C(O)c1ccccc1` (stereo not given): the TGI in the test with A498 renal, in the test with A549 NSCLC, in the test on CAKI-1 renal, with COLO 205 colon, in the test with EKVX NSCLC and with HCC-2998 colon was more than 100 µM each time. The TGI in the test on K-562 leukemia, in the test with NCI-H460 lung, in the test on NCI/ADR-RES ovarian, with OVCAR-4 ovarian, with OVCAR-8 ovarian and in the test with PC-3 prostate was more than 100 µM in each case. For the same molecule, the TGI in the test on SF-268 CNS, with SF-295 CNS, in the test on SF-539 CNS, in the test with SK-MEL-5 melanoma, in the test with SK-OV-3 ovarian and in the test with SNB-75 CNS was more than 100 µM throughout. Further, the TGI with UACC-257 melanoma is more than 100 µM.
Turning to `CNC(=O)CNC(=O)C(NC(=O)CNC(=O)C1CCCN1C(=O)C(C)NC(=O)C(NC(C)=O)C(C)C)C(C)C` (stereo not given) (Ac-VAPGVG-NHMe; configuration not given here), the TGI in the test with A498 renal, with CAKI-1 renal, with COLO 205 colon, with EKVX NSCLC, in the test with HCC-2998 colon and in the test with HL-60(TB) leukemia was more than 100 µM each time. The TGI in the test with K-562 leukemia, in the test with NCI-H460 lung, with NCI/ADR-RES ovarian, in the test on OVCAR-4 ovarian, with OVCAR-8 ovarian and with PC-3 prostate was more than 100 µM each time. Also, the TGI in the test with SF-268 CNS, in the test with SF-295 CNS, with SF-539 CNS, in the test on SK-OV-3 ovarian and in the test with UACC-257 melanoma was more than 100 µM each time.
Regarding `CN(C)C1(N(C)C)Oc2c(c(=O)n(C)c(=O)n2C)C(c2ccccc2Br)C1(F)F` (stereo not given), the TGI in the test with A498 renal, in the test with A549 NSCLC, in the test with CAKI-1 renal, in the test on COLO 205 colon, with EKVX NSCLC and in the test on HCC-2998 colon was more than 100 µM each time. In addition, the TGI with K-562 leukemia, in the test on NCI-H460 lung, in the test on NCI/ADR-RES ovarian, in the test with OVCAR-4 ovarian, in the test on PC-3 prostate and in the test on SF-268 CNS was more than 100 µM in each case. Moreover, the TGI with SF-295 CNS, with SF-539 CNS, in the test on SK-MEL-5 melanoma, with SK-OV-3 ovarian, in the test with SNB-75 CNS and in the test on UACC-257 melanoma was more than 100 µM each time.
Turning to `Cc1nc2c(O)cc3c4c(n(Cc5ccccc5)c3c2nc1C)C(=O)CCC4`, the TGI in the test with A498 renal, in the test with A549 NSCLC, in the test with COLO 205 colon, in the test on EKVX NSCLC, with HCC-2998 colon and in the test with HL-60(TB) leukemia was more than 100 µM throughout. Further, the TGI with K-562 leukemia was more than 100 µM; with NCI-H460 lung, more than 100 µM; in the test with NCI/ADR-RES ovarian, more than 100 µM; in the test with OVCAR-4 ovarian it was 59.3 µM; in the test on OVCAR-8 ovarian, 52.6 µM; with PC-3 prostate, more than 100 µM. In addition, the TGI is 50.9 µM with SF-268 CNS; more than 100 µM with SF-295 CNS; 48.1 µM with SF-539 CNS; more than 100 µM with SK-MEL-5 melanoma; 69.6 µM with SK-OV-3 ovarian; more than 100 µM in the test with UACC-257 melanoma.

The values are drawn from PubChem BioAssay (NCI).
